These results are taken from PMC5431342, “Discovery of an enzyme and substrate selective inhibitor of ADAM10 using an exosite-binding glycosylated substrate” (Scientific Reports, 2016).

Read-outs that look alike come from different tables or passages of the source.

Experiment [1] concerns shedding of CXCL16 in A549 cells. Kind of experiment: CXCL16 shedding inhibition (ELISA). In kind it is cell-based, human. The conditions noted are these: TNF/IFN stimulation 24 h. On the procedure: (§1) A549 cells were seeded in 12-well plates and grown to confluency in DMEM supplemented with 10% FBS and 1% P/S. Subsequently, cells were starved serum-free for 4 h, incubated for 1 h with GI 254023X or CID 3117694 (concentrations as indicated) or DMSO (vehicle, 0.1%) and afterwards stimulated with 10 ng/mL TNF and 10 ng/mL IFN for 24 h or left untreated in the presence of inhibitors or DMSO. Supernatants (500 µL) were harvested and centrifuged for 10 min at 16100 g and 4 °C. […] of CXCL16 were measured using the DuoSet human CXCL16 Elisa Kit (R&D systems, Wiesbaden, Germany). Samples were stored at −80 °C and diluted 2-fold after careful thawing. The standard ranged from 0 to 25,000 pg/mL with a detection limit of 391 pg/mL. For detection of soluble syndecan-4, conditioned media (200 µL) were 2-fold diluted in blotting buffer (0.15 M NaCl buffered to pH 4.5 with 50 mM sodium acetate, and with 0.1% Triton X-100), and applied to cationic polyvinylidene difluoride-based membranes (Hybond-N, Amersham Biosciences, Freiburg, Germany) under vacuum in a dot blot apparatus (Amersham Biosciences). The membranes were blocked for 1 h with PBS-T supplemented with 1% bovine serum albumin and 3% milk powder. Human syndecan-4 was detected by incubating membranes overnight at 4 °C with mouse anti-syndecan-4 mAb (0.6 µg/mL) followed by incubation with POD-coupled goat anti-mouse Ab (27 ng/mL in PBS, Jackson Immunoresearch). Chemiluminescence was recorded and quantified using the luminescent image analyzer LAS3000 substrate after addition of ECL advanced substrate (Amersham Biosciences).

The test system of experiment [2] is syndecan-4 shedding in A549 cells. Kind of experiment: Syndecan-4 shedding inhibition (dot blot). It counts as cell-based, human. The conditions noted are these: TNF/IFN 24 h. On the procedure:
as §1, with “For detection of soluble syndecan-4, conditioned media (200 µL) were 2-fold diluted in blotting buffer (0.15 M NaCl buffered to pH 4.5 with 50 mM sodium acetate, and with 0.1% Triton X-100), and applied to cationic polyvinylidene difluoride-based membranes (Hybond-N, Amersham Biosciences, Freiburg, Germany) under vacuum in a dot blot apparatus (Amersham Biosciences). The membranes were blocked for 1 h with PBS-T supplemented with 1% bovine serum albumin and 3% milk powder.” left out

In experiment [3] the test system is CCL2-induced migration of peripheral blood mononuclear cells (PBMC). As to the kind of experiment: PBMC migration assay. In kind it is cell-based. On the procedure:
(§2) For PBMC or primary human neutrophil chemotaxis assays, transwells with 8 or 5 µm pores were filled with 100 µL of cell suspension (1 × 10^6 cells in 100 µL DMEM + 0.2% BSA). Lower wells were filled with stimulus solution (3 nM CCL2 or 10 µg/mL CXCL8 (IL8) in assay buffer (RPMI + 0.2% BSA). After incubation of PBMCs for 2 h or neutrophils for 45 min, migrated cells were quantified in the lower well. For inhibitor studies, cells were pre-incubated in migration medium for 30 min and subsequently subjected to the migration experiment. Migrated neutrophils or PBMCs were quantified by measurement of endogenous glucuronidase activity as described.

Experiment [4] relates to IL-8-induced migration of primary human neutrophils. Kind of experiment: Neutrophil migration assay. In kind it is cell-based. On the procedure: as §2
Experiment [5] concerns the target T1, ADAM10 (Homo sapiens, UniProt O14672).
T1 construct: purchased R&D Systems 936-AD
T1 sequence (O14672 214-748): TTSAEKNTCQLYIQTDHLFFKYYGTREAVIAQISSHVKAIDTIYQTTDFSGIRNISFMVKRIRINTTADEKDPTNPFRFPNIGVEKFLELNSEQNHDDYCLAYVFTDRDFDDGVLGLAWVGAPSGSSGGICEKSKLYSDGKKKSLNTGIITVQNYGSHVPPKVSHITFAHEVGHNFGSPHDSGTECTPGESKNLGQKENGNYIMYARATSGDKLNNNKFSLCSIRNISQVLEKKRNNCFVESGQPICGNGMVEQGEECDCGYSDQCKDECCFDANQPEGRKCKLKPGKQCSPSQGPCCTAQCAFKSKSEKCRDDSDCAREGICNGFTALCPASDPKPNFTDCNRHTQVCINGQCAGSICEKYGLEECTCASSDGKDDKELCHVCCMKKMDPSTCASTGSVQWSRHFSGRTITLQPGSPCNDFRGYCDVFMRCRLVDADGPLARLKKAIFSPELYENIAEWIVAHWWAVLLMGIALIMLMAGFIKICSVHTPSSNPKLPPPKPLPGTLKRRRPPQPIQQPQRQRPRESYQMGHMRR
The conditions noted are these: cited from earlier work.

In experiment [6] the target is T2, ADAM17 (Homo sapiens, UniProt P78536).
T2 construct: purchased R&D Systems 930-ADB
The conditions noted are these: cited from earlier work.

In experiment [7] the target is T1, ADAM10. Kind of experiment: ADAM10 glycosylated substrate uHTS/HTS assay. In kind it is biochemical. On the procedure:
To enable uHTS both ADAM10 and ADAM17 glycosylated substrate[13] (Fig. 1A) assays were miniaturized to 1536 well plate format. The workflow of the assays in 384 well plate format was recaptured in 1536 well plate format and assay volume was scaled down to 5 µL.
Both assays followed the same general protocol. […] Reactions were incubated at RT for 2 h, after which the fluorescence was measured using Perkin Elmer Viewlux multimode microplate imager (λexcitation = 360 nm, λemission = 460 nm). Final concentration of test compounds in assays was 7.0 µM.
(§3) The miniaturized 1536-well plate format ADAM10 and ADAM17 assays were used to screen a collection of ≈370,000 compounds (MLSMR library, provided by the NIH) on the automated Kalypsys/GNF platform at the Scripps Research Institute Molecular Screening Center (SRIMSC, Jupiter, FL. More details at http://hts.florida.scripps.edu/). […] Both uHTS campaigns were run separately but in a similar manner. Briefly, the first step was the primary screen of all MLSMR’s test compounds as singlicate against the ADAM10 or ADAM17 target at a final concentration of 7.0 μM. Next, compounds selected as primary hits were cherry-picked and retested in triplicate against the primary screen target and its anti-target (ADAM17 for the ADAM10 screening effort, and vice-versa) at the same final concentration of 7.0 μM. […] All data generated during this effort were uploaded to the SRIMSC’s institutional screening database (Assay Explorer, Symyx). Sample to background (S/B) ratios, as well as Z and Z′ values were calculated on a per-plate basis as described before. Curve fitting and resulting IC50 determinations were performed as previously reported.

Experiment [8] addresses T2, ADAM17. As to the kind of experiment: ADAM17 glycosylated substrate uHTS/HTS assay. In kind it is biochemical. The conditions noted are these: for IC50: original uHTS dose response, 10-point 1:3 dilutions starting at 70 µM. On the procedure:
Both assays followed the same general protocol. […] After 30 min incubation at RT, the reactions were started by addition of 2.5 µL of 2x solutions of glycosylated substrate (20 µM). Reactions were incubated at RT for 2 h, after which the fluorescence was measured using Perkin Elmer Viewlux multimode microplate imager (λexcitation = 360 nm, λemission = 460 nm). Final concentration of test compounds in assays was 7.0 µM.
as §3

In experiment [9] the target is T1, ADAM10. As to the kind of experiment: ADAM10 non-glycosylated substrate assay. It counts as biochemical. The conditions noted are these: ADAM10. From the text:
Additionally, we synthesized a non-glycosylated version, E(Edans)-[…]-K(Dabcyl), to be used as a control in the follow-up studies.

Experiment [10] concerns the target T1, ADAM10. As to the kind of experiment: Dual inhibition studies of ADAM10 with AHA and CID 3117694. In kind it is biochemical. On the procedure:
5 µL of 4X ADAM10 solution ([…]) were added to solid bottom black 384 low volume plates (Nunc, cat# 264705). […] 5 µL of 4X CID 3117694 were added to the wells containing AHA such that the final assay concentrations of CID 3117694 were 0.275, 0.55, 1.1, 2.2, and 4.4 µM. Enzyme-inhibitor mixtures were incubated for 1 h at RT after which 5 µL of 4X glycosylated substrate was added to all wells. Reactions were incubated at RT for 2 h, after which the fluorescence was measured using the Synergy H4 multimode microplate reader (λexcitation = 360 nm, λemission = 460 nm). IC50 values were calculated by fitting normalized data to sigmoidal log vs. response equation utilizing non-linear regression analysis from GraphPad Prizm 6.
Multi-drug combination dose-effect analysis using Compusyn software (ComboSyn, Inc. 599 Mill Run, Paramus, NJ, 07653, USA) was utilized to determine whether inhibitor combinations produced synergy, antagonism, or no effect as compared to a single inhibitor. Combination Index values were obtained using Combination Index (CI) Equation of Chou-Talalay[56] in Compusyn software (ComboSyn, Inc. 599 Mill Run, Paramus, NJ, 07653, USA) and a normalized isobologram was constructed: (D)1/(Dx)1+(D)2/(Dx)2=CI
In the denominators, (Dx)1 is the doses of Drug1 alone that inhibits x% while (Dx)2 is the dose of Drug2 alone that inhibits x%. […] Effect was determined according to the Table 1 (from ref. [57]).

Setting [11] is: original uHTS dose response, 10-point 1:3 dilutions starting at 70 µM.

T2 sequence (P78536 215-824): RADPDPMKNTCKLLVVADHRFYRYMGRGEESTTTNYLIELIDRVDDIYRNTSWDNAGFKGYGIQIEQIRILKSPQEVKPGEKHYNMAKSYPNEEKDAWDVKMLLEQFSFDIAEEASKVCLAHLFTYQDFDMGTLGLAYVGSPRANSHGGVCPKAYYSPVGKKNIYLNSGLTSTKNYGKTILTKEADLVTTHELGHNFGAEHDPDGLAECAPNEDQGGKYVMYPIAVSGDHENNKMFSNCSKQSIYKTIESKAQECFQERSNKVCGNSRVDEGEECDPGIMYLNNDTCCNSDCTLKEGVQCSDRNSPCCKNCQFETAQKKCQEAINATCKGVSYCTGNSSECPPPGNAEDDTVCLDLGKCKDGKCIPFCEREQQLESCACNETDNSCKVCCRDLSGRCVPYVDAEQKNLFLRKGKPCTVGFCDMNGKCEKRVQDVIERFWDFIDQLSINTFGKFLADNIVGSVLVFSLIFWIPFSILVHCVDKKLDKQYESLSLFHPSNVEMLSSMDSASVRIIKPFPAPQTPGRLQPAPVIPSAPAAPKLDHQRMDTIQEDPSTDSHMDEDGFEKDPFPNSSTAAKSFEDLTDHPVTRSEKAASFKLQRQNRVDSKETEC

In the case of `CNC(=O)[C@@H](NC(=O)[C@H](CCCc1ccccc1)[C@H](C)N(O)C=O)C(C)(C)C` [GI 254023X, reference compound], in experiment [1], the “inhibition of cytokine-inducible shedding of CXCL16” value is “inhibited shedding”. Further, the “inhibition of syndecan-4 shedding” value in experiment [2] is listed as “inhibited shedding”. Also, the “inhibition of PBMC migration” value in [3] is “completely inhibited migration”. Besides, the “inhibition of neutrophil migration” value in experiment [4] is given as “completely inhibited migration”. The IC50 at ADAM10 [5] is 0.0053 µM; at ADAM17 [6], 0.541 µM.

On to `O=C1NC(=O)C(Cc2ccc(Cl)cc2)(c2ccccc2)N1` (stereo not shown) [CID 236330], for which the IC50 against ADAM10 [7] (setting [11]) amounted to 32 µM; against ADAM17 [8] it was 3.2 µM.

As for `CNC(=O)[C@@H](NC(=O)[C@H](CC(C)C)[C@H](O)C(=O)NO)C(C)(C)C` [marimastat, reference compound], the IC50 is 0.033 µM on ADAM10 [7] (384 well plate format) and 0.02 µM against ADAM10 [7] (1536 well plate format). The “potency for hydrolysis of glycosylated versus non-glycosylated substrate” value on ADAM10 [9] is given as “same potency”.

For the molecule `CC(=O)NO` [AHA, acetohydroxamic acid], the IC50 on ADAM10 [10] (AHA alone, read-out: AHA IC50, ADAM10-mediated hydrolysis of glycosylated substrate) was determined as 1000 ± 50 µM. Also, the entries for the “improvement in potency versus AHA alone” value at ADAM10 [10] (in the presence of 1.1 µM CID 31176944) and at ADAM10 [10] (in the presence of 4.4 µM CID 31176944) were 10 fold and 100 fold, respectively.

On to `CCOc1ccc(NC(=O)CC2SC(=O)N(c3ccccc3)C2=O)cc1` (stereo not shown) [CID 3153587], for which the IC50 at ADAM10 [7] (setting [11]) was over 70 µM; at ADAM17 [8] it was 7.8 µM.

`O=C(O)CCC(=O)c1c[nH]c2ccccc12` [CID 730037]: the IC50 on ADAM10 [7] (setting [11]) is over 70 µM. Moreover, at ADAM17 [8] (reordered powder, 10-point 1:3 dilutions starting at 100 µM), the “activity against ADAM17 of reordered powder versus original testing” value is “significantly lower activity”.

As to `O=C(NO)[C@H]1C[C@H](OC(=O)N2CCCC2)CC[C@@H]1C(=O)N1CCC(c2ccccc2)CC1` [INCB8765], the results for the IC50 on ADAM10 [5] and on ADAM17 [6] were 0.097 µM and 2.04 µM, respectively.

B1: ADAM10 prodomain: Biozyme Inc.; competitive inhibitor of ADAM10 (protein)
chain: NPLNKYIRHYEGLSYNVDSLHQKHQRAKRAVSHEDQFLLLDFHAHGRQFNLRMKRDTSLFSDEFKVETSNKVLDYDTSHIYTGHIYGEEGSFSHGSVIDGRFEGFIKTRGGTFYIEPAERYIKDRILPFHSVIYHEDDINYPHKYGPQGGCADHSVFERMRKYQMTGVEEGARAHPEKHAASSGPELLRKK
modifications: tag omitted
B1: the IC50 with ADAM10 [5] was 0.048 µM; in the experiment with ADAM17 [6], over 10 µM.
